Test results taken from ChEMBL document CHEMBL3739267, “Synthesis of 2,6-dicarbethoxy-3,5-diaryltetrahydro-1,4-thiazine-1,1-dioxide derivatives as potent anticonvulsant agents” (Eur J Med Chem, 2015).
Activity calls are given as the source filed them. No cut-off for these calls is given here.

Key:
Mus musculus [1] = experiment: Neurotoxicity in Swiss albino mouse assessed as inability of animal to maintain equilibrium on rod at 300 mg/kg, ip after 4 hrs by rotarod test; type: toxicity, organism-based; settings: in vivo
Mus musculus [2] = experiment: Anticonvulsant activity in ip dosed Swiss albino mouse assessed as reduction of subcutaneous pentylenetetrazole-induced seizure after 4 hrs; type: functional; settings: read-out: MED
Mus musculus [3] = experiment: Anticonvulsant activity in Swiss albino mouse assessed as reduction of maximal electroshock-induced seizure at 300 mg/kg, ip after 0.5 hrs; type: functional, organism-based
Mus musculus [4] = experiment: Anticonvulsant activity in Swiss albino mouse assessed as reduction of maximal electroshock-induced seizure at 300 mg/kg, ip after 4 hrs; type: functional, organism-based
Mus musculus [5] = experiment: Anticonvulsant activity in ip dosed Swiss albino mouse assessed as reduction of subcutaneous pentylenetetrazole-induced seizure after 0.5 hrs; type: functional; settings: read-out: MED
Mus musculus [6] = experiment: Neurotoxicity in Swiss albino mouse assessed as inability of animal to maintain equilibrium on rod at 300 mg/kg, ip after 0.5 hrs by rotarod test; type: toxicity, organism-based; settings: in vivo
Mus musculus [7] = experiment: Anticonvulsant activity in ip dosed Swiss albino mouse assessed as reduction of maximal electroshock-induced seizure after 0.5 hrs; type: functional; settings: read-out: MED
Mus musculus [8] = experiment: Anticonvulsant activity in ip dosed Swiss albino mouse assessed as reduction of maximal electroshock-induced seizure after 4 hrs; type: functional; settings: read-out: MED
[9] = (§1) Neurotoxicity in ip dosed Swiss albino mouse assessed as inability of animal to maintain equilibrium on rod after 0.5 hrs by rotarod test; type: toxicity, organism-based; settings: Swiss albino, in vivo
Mus musculus [10] = experiment: Protective index, ratio of TD50 for ip dosed Swiss albino mouse assessed as inability of animal to maintain equilibrium on rod after 0.5 hrs by rotarod test to ED50 for Swiss albino mouse assessed as reduction of maximal electroshock-induced seizure; type: functional
Mus musculus [11] = experiment: Anticonvulsant activity in ip dosed Swiss albino mouse assessed as reduction of subcutaneous pentylenetetrazole-induced seizure; type: functional
Mus musculus [12] = experiment: Protective index, ratio of TD50 for ip dosed Swiss albino mouse assessed as inability of animal to maintain equilibrium on rod after 0.5 hrs by rotarod test to ED50 for Swiss albino mouse assessed as subcutaneous pentylenetetrazole-induced seizure; type: functional
Mus musculus [13] = experiment: Anticonvulsant activity in ip dosed Swiss albino mouse assessed as reduction of maximal electroshock-induced seizure; type: functional
Mus musculus [14] = experiment: Anticonvulsant activity in Swiss albino mouse assessed as reduction of subcutaneous pentylenetetrazole-induced seizure at 300 mg/kg, ip after 4 hrs; type: functional, organism-based
Mus musculus [15] = experiment: as §1; type: toxicity, organism-based; settings: in vivo, 0.5 h
Mus musculus [16] = experiment: Anticonvulsant activity in Swiss albino mouse assessed as reduction of subcutaneous pentylenetetrazole-induced seizure at 300 mg/kg, ip after 0.5 hrs; type: functional, organism-based
Mus musculus [17] = experiment: Neurotoxicity in ip dosed Swiss albino mouse assessed as inability of animal to maintain equilibrium on rod after 4 hrs by rotarod test; type: toxicity, organism-based; settings: in vivo

| SMILES | Activity (Mus musculus [1]) | minimal effective dose (Mus musculus [2]) | Activity (Mus musculus [3]) | Activity (Mus musculus [4]) | minimal effective dose (Mus musculus [5]) | Activity (Mus musculus [6]) | minimal effective dose (Mus musculus [7]) | minimal effective dose (Mus musculus [8]) | TD50 at 0.5 h [9] | Ratio TD50/ED50 (Mus musculus [10]) | ED50 (Mus musculus [11]) | Ratio TD50/ED50 (Mus musculus [12]) | ED50 (Mus musculus [13]) | Activity (Mus musculus [14]) | MTC (Mus musculus [15]) | Activity (Mus musculus [16]) | MTC (Mus musculus [17]) |
| --- | --- | --- | --- | --- | --- | --- | --- | --- | --- | --- | --- | --- | --- | --- | --- | --- | --- |
| CCC1(C)CC(=O)NC1=O (stereo not drawn) [ETHOSUXIMIDE] | Non-toxic | 300 mg/kg | inactive | inactive | 100 mg/kg | Non-toxic | – | – | – | – | – | – | – | – | – | – | – |
| CCOC(=O)C1C(c2cc3ccccc3nc2Cl)NC(c2cc3ccccc3nc2Cl)C(C(=O)OCC)S1(=O)=O (stereo not drawn) | Non-toxic | 300 mg/kg | – | – | 300 mg/kg | Non-toxic | 30 mg/kg | 100 mg/kg | 128 mg/kg | 10.3 | 62.7 mg/kg | 2 | 12.4 mg/kg | – | – | – | – |
| CCOC(=O)C1C(c2cc3ccccc3[nH]2)NC(c2cc3ccccc3[nH]2)C(C(=O)OCC)S1(=O)=O (stereo not drawn) | Non-toxic | 300 mg/kg | – | – | 300 mg/kg | Non-toxic | 30 mg/kg | 100 mg/kg | 119 mg/kg | 9 | 56.8 mg/kg | 2.1 | 13.2 mg/kg | – | – | – | – |
| O=C1NC(=O)C(c2ccccc2)(c2ccccc2)N1 [PHENYTOIN] | – | – | – | – | 100 mg/kg | – | 30 mg/kg | 30 mg/kg | – | – | > 300 mg/kg | – | 9.8 mg/kg | inactive | 100 mg/kg | inactive | 100 mg/kg |
| CCOC(=O)C1C(c2ccsc2)NC(c2ccsc2)C(C(=O)OCC)S1(=O)=O (stereo not drawn) | – | – | – | – | 300 mg/kg | Non-toxic | 100 mg/kg | 300 mg/kg | – | – | – | – | – | inactive | – | – | 300 mg/kg |
| CCC1(c2ccccc2)C(=O)NC(=O)NC1=O [PHENOBARBITAL] | – | – | – | – | – | – | – | – | 68.2 mg/kg | – | 13.2 mg/kg | – | 20.6 mg/kg | – | – | – | – |
| NC(=O)N1c2ccccc2C=Cc2ccccc21 [CARBAMAZEPINE] | – | – | – | – | – | – | – | – | – | – | > 100 mg/kg | – | 11.4 mg/kg | – | – | – | – |
| CCOC(=O)C1C(c2ccccc2)NC(c2ccccc2)C(C(=O)OCC)S1(=O)=O (stereo not drawn) | Non-toxic | 300 mg/kg | – | – | 300 mg/kg | Non-toxic | 30 mg/kg | 100 mg/kg | 131 mg/kg | 8.8 | 58.6 mg/kg | 2.2 | 14.8 mg/kg | – | – | – | – |
| CCOC(=O)C1C(c2ccc[nH]2)NC(c2ccc[nH]2)C(C(=O)OCC)S1(=O)=O (stereo not drawn) | Non-toxic | – | – | – | 300 mg/kg | – | 100 mg/kg | 300 mg/kg | – | – | – | – | – | inactive | 300 mg/kg | – | – |
| CCOC(=O)C1C(c2ccc(OC)c(OC)c2)NC(c2ccc(OC)c(OC)c2)C(C(=O)OCC)S1(=O)=O (stereo not drawn) | – | – | – | – | 300 mg/kg | Non-toxic | 100 mg/kg | 300 mg/kg | – | – | – | – | – | inactive | – | – | 300 mg/kg |
| CCOC(=O)C1C(c2ccccn2)NC(c2ccccn2)C(C(=O)OCC)S1(=O)=O (stereo not drawn) | – | – | – | – | – | Non-toxic | 300 mg/kg | 300 mg/kg | – | – | – | – | – | inactive | – | inactive | 300 mg/kg |
| CCOC(=O)C1C(c2ccc(C)cc2)NC(c2ccc(C)cc2)C(C(=O)OCC)S1(=O)=O (stereo not drawn) | Non-toxic | 300 mg/kg | – | – | 300 mg/kg | Non-toxic | 30 mg/kg | 100 mg/kg | 227 mg/kg | 15.7 | 90.2 mg/kg | 2.5 | 14.4 mg/kg | – | – | – | – |
| CCOC(=O)C1C(c2cccs2)NC(c2cccs2)C(C(=O)OCC)S1(=O)=O (stereo not drawn) | – | – | – | – | 300 mg/kg | Non-toxic | 100 mg/kg | 300 mg/kg | – | – | – | – | – | inactive | – | – | 300 mg/kg |
| CCCC(CCC)C(=O)O [VALPROIC ACID] | – | – | – | – | – | – | – | – | – | – | 149 mg/kg | – | – | – | – | – | – |
| CCOC(=O)C1C(c2ccc([N+](=O)[O-])cc2)NC(c2ccc([N+](=O)[O-])cc2)C(C(=O)OCC)S1(=O)=O (stereo not drawn) | Non-toxic | 300 mg/kg | – | – | 300 mg/kg | Non-toxic | 30 mg/kg | 100 mg/kg | 190 mg/kg | 16.7 | 73.2 mg/kg | 2.6 | 11.4 mg/kg | – | – | – | – |
| CCOC(=O)C1C(c2ccccc2Cl)NC(c2ccccc2Cl)C(C(=O)OCC)S1(=O)=O (stereo not drawn) | Non-toxic | – | – | – | 300 mg/kg | Non-toxic | 100 mg/kg | 300 mg/kg | – | – | – | – | – | inactive | – | – | – |
| CCOC(=O)C1C(c2ccco2)NC(c2ccco2)C(C(=O)OCC)S1(=O)=O (stereo not drawn) | – | – | – | – | – | Non-toxic | 300 mg/kg | 300 mg/kg | – | – | – | – | – | inactive | – | inactive | 300 mg/kg |
| CCOC(=O)C1C(c2cccc(Cl)c2)NC(c2cccc(Cl)c2)C(C(=O)OCC)S1(=O)=O (stereo not drawn) | Non-toxic | – | – | – | 300 mg/kg | – | 100 mg/kg | 300 mg/kg | – | – | – | – | – | inactive | 300 mg/kg | – | – |
| CCOC(=O)C1C(c2cccnc2)NC(c2cccnc2)C(C(=O)OCC)S1(=O)=O (stereo not drawn) | – | – | – | – | – | Non-toxic | 300 mg/kg | 300 mg/kg | – | – | – | – | – | inactive | – | inactive | 300 mg/kg |
| CCOC(=O)C1C(c2ccc3c(c2)OCO3)NC(c2ccc3c(c2)OCO3)C(C(=O)OCC)S1(=O)=O (stereo not drawn) | Non-toxic | 300 mg/kg | – | – | 300 mg/kg | Non-toxic | 30 mg/kg | 100 mg/kg | 248 mg/kg | 9 | 220 mg/kg | 1.1 | 27.4 mg/kg | – | – | – | – |
| CCOC(=O)C1C(c2ccc(OC)cc2)NC(c2ccc(OC)cc2)C(C(=O)OCC)S1(=O)=O (stereo not drawn) | – | – | – | – | 300 mg/kg | Non-toxic | 100 mg/kg | 300 mg/kg | – | – | – | – | – | inactive | – | – | 300 mg/kg |
| CCOC(=O)C1C(c2ccc(Cl)cc2)NC(c2ccc(Cl)cc2)C(C(=O)OCC)S1(=O)=O (stereo not drawn) | Non-toxic | 300 mg/kg | – | – | 100 mg/kg | Non-toxic | 30 mg/kg | 30 mg/kg | 289 mg/kg | 28.3 | 50.5 mg/kg | 5.7 | 10.2 mg/kg | – | – | – | – |
